{"source": "patent US8735538B1", "about": "“Use of methanobactin” (priority 2006, dated 2014)", "key": {"[1]": {"test": "ITC, metal binding to mb: Mn(II)", "settings": "Mn(II) column, one-site fit, 25° C.", "procedure": "(§1) FIG. 14. Binding isotherm of 3.2 mM HgCl2 (A), HAuCl4 (B), AgNO3 (C) NiCl2 (D), ZnCl2 (E) or FeCl3 (F) into 400 μM mb (cell) aqueous solution at 25° C. Binding isotherm of 1.6 mM HAuCl4 (B). The curve fittings for two-site binding algorithm were used.\n(§2) FIG. 15. Binding isotherm of 3.2 mM CdCl2 (A), CoCl2(B), FeCl3 (C), or MnCl2(D) into […] mb aqueous solution at 25° C. Curve fittings for one-site binding algorithm (B, D) or two-site binding algorithm (A, C) were used.\n(§3) ITC was performed with following modifications from the previously described procedure (Choi et al., 2006). First, concentrations of the titrant and cell solutions were raised to 3.2 mM and 0.4 mM, respectively. Second, the interval between titrant injections were decreased to 600 s and the stirring rate decreased to 380 rpm."}, "[2]": {"test": "Initial screening by UV-visible absorption spectroscopy: Mg(II)", "assay_type": "binding", "settings": "in the absence of Cu(II) or Cu(I)", "procedure": "(§4) Metal titration experiments were determined by addition of 100 μM, 1 mM, or 10 mM solutions of AgNO3, HAuCl4, CdCl2, CoCl2, CrO3, CuSO4, FeCl3, HgCl2, MgCl2, MnCl2, NiCl2, Pb(NO3)2, UO2(NO3)2, or ZnSO4 to 50 μM methanobactin dissolved in H2O, pH 6.8 as previously described for Cu(II) or Cu(I) titrations (Choi et al., 2006) unless otherwise stated. Glassware was soaked in 0.1 N HNO3 for 12 hours then rinsed with milliQ H2O. For the metal replacement experiments, 50 μM aqueous mb solutions were preloaded with equimolar of AgNO3, HAuCl4, CaCl2, CdCl2, CoCl2, CrO3, CuSO4, FeCl3, HgCl2, MgCl2, MnCl2, NiCl2, Pb(NO3)2, UO2(NO3)2, or ZnSO4, incubated for 10 minutes followed by the addition of equimolar CuSO4 then monitored via UV-visible absorption spectroscopy every 30 seconds for 0.5-120 minutes. Between scans the samples were stored in the dark to avoid photodegradation (Choi et al., 2005).\n(§5) UV-visible absorption, florescence spectra, circular dichroism (CD), and metal determinations via inductively coupled plasma atomic emission-mass spectroscopy (ICP-MS) were determined as previously described (Choi et al., 2003; Choi et al., 2006). In contrast to a previous report (Choi et al., 2006), the base line was used as a reference point of 0 instead of isosbestic point e for the comparison of Δεs."}, "[3]": {"test": "Initial screening by UV-visible absorption spectroscopy: Ag(I)", "assay_type": "binding", "settings": "in the absence of Cu(II) or Cu(I)", "procedure": "as §4, §5"}, "[4]": {"test": "Initial screening by UV-visible absorption spectroscopy: Mn(II)", "assay_type": "binding", "settings": "in the absence of Cu(II) or Cu(I)", "procedure": "as §4, §5"}, "[5]": {"test": "Initial screening by UV-visible absorption spectroscopy: Pb(II)", "assay_type": "binding", "settings": "in the absence of Cu(II) or Cu(I)", "procedure": "as §4, §5"}, "[6]": {"test": "Initial screening by UV-visible absorption spectroscopy: Sr(II)", "assay_type": "binding", "settings": "in the absence of Cu(II) or Cu(I)"}, "[7]": {"test": "ITC, metal binding to mb: Cd(II)", "settings": "Cd(II) column", "procedure": "as §1, §2, §3"}, "[8]": {"test": "Initial screening by UV-visible absorption spectroscopy: Co(II)", "assay_type": "binding", "settings": "in the absence of Cu(II) or Cu(I)", "procedure": "as §4, §5"}, "[9]": {"test": "Initial screening by UV-visible absorption spectroscopy: La(III)", "assay_type": "binding", "settings": "in the absence of Cu(II) or Cu(I)"}, "[10]": {"test": "Initial screening by UV-visible absorption spectroscopy: Cd(II)", "assay_type": "binding", "settings": "in the absence of Cu(II) or Cu(I)", "procedure": "as §4, §5"}, "[11]": {"test": "Initial screening by UV-visible absorption spectroscopy: Fe(III)", "assay_type": "binding", "settings": "in the absence of Cu(II) or Cu(I)", "procedure": "as §4, §5"}, "[12]": {"test": "ITC, metal binding to mb: Au(III)", "settings": "column headed Au(II)", "procedure": "as §1, §2, §3"}, "[13]": {"test": "XPS, oxidation state of metal bound to mb: Ni(II)", "excerpt": "(§6) XPS was preformed on a model Phoibos-150 hemispherical analyzer (SPECS Scientific Instruments, Sarasota, Fla.) or on a model 5600ci spectrophotometer (Perkin-Elmer Inc., Eden Prairie, Minn.) as previously described (Choi et al., 2006)."}, "[14]": {"test": "Initial screening by UV-visible absorption spectroscopy: Au(III)", "assay_type": "binding", "settings": "in the absence of Cu(II) or Cu(I)", "procedure": "as §4, §5"}, "[15]": {"test": "ITC, metal binding to mb: Zn(II)", "settings": "Zn(II) column", "procedure": "as §1, §2, §3"}, "[16]": {"test": "ITC, metal binding to mb: Co(II)", "settings": "Co(II) column, one-site fit, 25° C.", "procedure": "as §1, §2, §3"}, "[17]": {"test": "XPS, oxidation state of metal bound to mb: Au(III)", "excerpt": "FIG. 11. (A) Gold X-ray photoelectric spectra of mb at gold to mb molar ratios between 0.05 and 10 Au per mb. (B) Corrected signal from Au(0) (◯) and Au(III) (●) at different gold:mb molar ratios.\nas §6"}, "[18]": {"test": "ITC, metal binding to mb: Pb(II)", "settings": "Pb(II) column, one-site binding model", "procedure": "as §1, §2, §3"}, "[19]": {"test": "Initial screening by UV-visible absorption spectroscopy: U(VI)", "assay_type": "binding", "settings": "in the absence of Cu(II) or Cu(I)", "procedure": "as §4, §5"}, "[20]": {"test": "Initial screening by UV-visible absorption spectroscopy: Ba(II)", "assay_type": "binding", "settings": "in the absence of Cu(II) or Cu(I)"}, "[21]": {"settings": "Cu(II) column, cited from earlier work"}, "[22]": {"test": "ITC, metal binding to mb: Ag(I)", "settings": "Ag(I) column", "procedure": "as §1, §2, §3"}, "[23]": {"test": "ITC, metal binding to mb: Ni(II)", "settings": "Ni(II) column", "procedure": "as §1, §2, §3"}, "[24]": {"test": "ITC, metal binding to mb: Hg(II)", "settings": "Hg(II) column", "procedure": "as §1, §2, §3"}, "[25]": {"test": "Initial screening by UV-visible absorption spectroscopy: Ni(II)", "assay_type": "binding", "settings": "in the absence of Cu(II) or Cu(I)", "procedure": "as §4, §5"}, "[26]": {"test": "Initial screening by UV-visible absorption spectroscopy: Zn(II)", "assay_type": "binding", "settings": "in the absence of Cu(II) or Cu(I)", "procedure": "as §4, §5"}, "[27]": {"test": "ITC, metal binding to mb: Fe(III)", "settings": "Fe(III) column", "procedure": "as §1, §2, §3"}, "[28]": {"test": "Initial screening by UV-visible absorption spectroscopy: Hg(II)", "assay_type": "binding", "settings": "in the absence of Cu(II) or Cu(I)", "procedure": "as §4, §5"}, "[29]": {"settings": "first site, two-site fit, 25° C."}}, "note": "Like-named read-outs stand apart in the source and are kept apart here."}
{"substance": "methanobactin [mb]", "values": [{"measurement": "K1", "setting": "[1]", "value": "7.7 ± 1.8 × 10^5 M^−1"}, {"measurement": "binding of Mg(II) by mb", "setting": "[2]", "value": "not"}, {"measurement": "binding of Ag(I) by mb", "setting": "[3]", "value": "will bind"}, {"measurement": "binding of Mn(II) by mb", "setting": "[4]", "value": "will bind"}, {"measurement": "binding of Pb(II) by mb", "setting": "[5]", "value": "will bind"}, {"measurement": "binding of Sr(II) by mb", "setting": "[6]", "value": "not"}, {"measurement": "K1", "setting": "[7]; [29]", "value": "1.3 ± 0.8 × 10^6 M^−1"}, {"measurement": "K1", "setting": "[7]; second site", "value": "1.1 ± 0.6 × 10^7 M^−1"}, {"measurement": "binding of Co(II) by mb", "setting": "[8]", "value": "will bind"}, {"measurement": "binding of La(III) by mb", "setting": "[9]", "value": "not"}, {"measurement": "binding of Cd(II) by mb", "setting": "[10]", "value": "will bind"}, {"measurement": "binding of Fe(III) by mb", "setting": "[11]", "value": "will bind"}, {"measurement": "K1", "setting": "[12]; [29]", "value": "1.0 ± 0.5 × 10^5 M^−1"}, {"measurement": "K1", "setting": "[12]; second site", "value": "1.8 ± 0.2 × 10^5 M^−1"}, {"measurement": "oxidation state of Ni(II) following binding to mb", "setting": "[13]", "value": "did not change"}, {"measurement": "binding of Au(III) by mb", "setting": "[14]", "value": "will bind"}, {"measurement": "K1", "setting": "[15]; [29]", "value": "4.5 ± 1.4 × 10^6 M^−1"}, {"measurement": "K1", "setting": "[15]; second site", "value": "1.8 ± 0.1 × 10^4 M^−1"}, {"measurement": "K1", "setting": "[16]", "value": "1.1 ± 0.2 × 10^6 M^−1"}, {"measurement": "Au to mb ratio above which Au(III) is detected in reaction mixtures", "setting": "[17]", "value": "> 2 Au(III) per mb"}, {"measurement": "oxidation state of Au(III) after binding by mb", "setting": "[17]; no external reductant", "value": "reduced to Au(0)"}, {"measurement": "K1", "setting": "[18]", "value": "6.84 ± 0.4 × 10^5 M^−1"}, {"measurement": "binding of U(VI) by mb", "setting": "[19]", "value": "will bind"}, {"measurement": "binding of Ba(II) by mb", "setting": "[20]", "value": "not"}, {"measurement": "K1", "setting": "[21]; first site", "value": "3.3e+34 ± 3e+11", "unit": "M⁻¹"}, {"measurement": "K1", "setting": "[21]; second site", "value": "2.6 ± 0.5 × 10^8 M^−1"}, {"measurement": "K1", "setting": "[22]; [29]", "value": "2.6 ± 0.4 × 10^7 M^−1"}, {"measurement": "K1", "setting": "[22]; second site", "value": "4.7 ± 0.45 × 10^4 M^−1"}, {"measurement": "K1", "setting": "[23]; [29]", "value": "4.9 ± 0.9 × 10^5 M^−1"}, {"measurement": "K1", "setting": "[23]; second site", "value": "1.17 ± 0.5 × 10^7 M^−1"}, {"measurement": "K1", "setting": "[24]; [29]", "value": "9.9 ± 2.9 × 10^6 M^−1"}, {"measurement": "K1", "setting": "[24]; second site", "value": "89.9 ± 0.01 × 10^4 M^−1"}, {"measurement": "binding of Ni(II) by mb", "setting": "[25]", "value": "will bind"}, {"measurement": "binding of Zn(II) by mb", "setting": "[26]", "value": "will bind"}, {"measurement": "K1", "setting": "[27]; [29]", "value": "9.7 ± 0.6 × 10^5 M^−1"}, {"measurement": "K1", "setting": "[27]; second site", "value": "1.7 ± 0.7 x10^5 M^−1"}, {"measurement": "binding of Hg(II) by mb", "setting": "[28]", "value": "will bind"}]}
